Source: article PMC9788431, “Combination of Docking-Based and Pharmacophore-Based Virtual Screening Identifies Novel Agonists That Target the Urotensin Receptor” (Molecules, 2022)

Assays:
[1] = biological target: T1, UT receptor (Homo sapiens, UniProt Q9UKP6); experiment: luciferase β-arrestin recruitment-based assay; format: cell-based; settings: HTLA cells transfected with UT receptor plasmid
T1 construct: SNAP-tag; expressed in transfected cells; host or cells: 293A8 (HEK293A stably transfected with the UT receptor); inferred, the calcium-assay paragraph names no cells
T1 sequence (Q9UKP6 1-389): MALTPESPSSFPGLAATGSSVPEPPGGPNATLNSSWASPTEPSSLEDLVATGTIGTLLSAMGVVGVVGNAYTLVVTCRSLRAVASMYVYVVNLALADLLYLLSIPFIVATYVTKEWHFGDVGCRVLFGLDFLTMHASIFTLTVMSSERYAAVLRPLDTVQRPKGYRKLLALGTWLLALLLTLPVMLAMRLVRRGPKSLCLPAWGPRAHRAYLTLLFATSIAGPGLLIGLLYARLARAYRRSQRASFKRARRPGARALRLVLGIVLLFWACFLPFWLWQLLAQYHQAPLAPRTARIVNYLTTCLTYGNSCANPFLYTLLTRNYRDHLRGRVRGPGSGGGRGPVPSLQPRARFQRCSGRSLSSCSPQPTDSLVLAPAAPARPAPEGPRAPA
Experimental: (§1) HTLA cells (a HEK293 cell line stably expressing a tTA-dependent luciferase reporter and a β-arrestin2-TEV fusion gene) were a gift from the laboratory of R. Axel (he has given us permission to distribute them) and are maintained in DMEM supplemented with 10% FBS, 100 U/mL penicillin and 100 μg/mL streptomycin, 2 μg/mL puromycin and 100 μg/mL hygromycin B. HepG2 cells (C5 passage, human hepatoma cell line) were purchased from the National Platform of Experimental Cell Resources for Sci-Tech, Chinese Academy of Medical Sciences (Beijing, China), and 293A8 cells were the cell line HEK293A stably transfected with the UT receptor in our laboratory. HepG2 and 293A8 cells were grown in high glucose (25 mmol/L) Dulbecco’s modified Eagle’s medium (DMEM, Gibco, CA, USA) supplemented with 10% fetal bovine serum (FBS, Gibco, CA, USA), 100 U/mL penicillin and 100 µg/mL streptomycin solution (Solarbio, Beijing, China). Cells were cultured in a standard humidified incubator at 37 °C under a 5% CO2 atmosphere. The media were changed every 2 days. Subcultures were performed at a ratio of 1:3 when cells were approximately 75–85% confluent.
The β-arrestin recruitment-based experiments were performed according to previous reports with slight modifications. In brief, the UT receptor plasmid was transfected into HTLA cells with the transfection reagent PEI when the cell confluence reached approximately 80%. Transfected cells were seeded in 96-well plates at a density of 1.5 × 10^5 cells/well. After 24 h, the cells were treated with compounds diluted to the specified concentration using 10% FBS DMEM. Following the next 24 h incubation with compounds, the medium was removed and Bright-GloTM (Promega, Madison, WI, USA) reagent was added immediately. Then, the activity of firefly luciferase luminescence (RLUF) was measured using a SpectraMax M5 microplate reader (Molecular devices, LLC., San Jose, CA, USA).

[2] = design: method as in PMID 19696412; settings: cited from earlier work
[3] = biological target: T1, UT receptor; experiment: intracellular calcium mobilization (Fluo-8 calcium assay); format: cell-based; settings: intracellular calcium mobilization
Experimental: as §1
Measurement of intracellular calcium mobilization was performed using Fluo-8 Calcium Assay Kit (Applygen, Beijing, China) following the manufacturer’s instructions.

[4] = chronic administration, cited from earlier work

β-arrestin recruitment-based assay Emax [1]: 8.32 | Calcium assay Emax [3]: 5.27
Compound: CC(C)[C@H](NC(=O)[C@@H]1CSSC[C@H](NC(=O)[C@H](CC(=O)O)NC(=O)[C@@H]2CCCN2C(=O)[C@@H](NC(=O)[C@@H](N)CCC(=O)O)[C@@H](C)O)C(=O)N[C@@H](Cc2ccccc2)C(=O)N[C@@H](Cc2c[nH]c3ccccc23)C(=O)N[C@@H](CCCCN)C(=O)N[C@@H](Cc2ccc(O)cc2)C(=O)N1)C(=O)O [U-II, urotensin-II]
glucose consumption in vitro [2]: increases glucose consumption | whole-body glucose tolerance ([4]; high-fat-diet-fed mice): improves whole-body glucose tolerance | glucose tolerance ([4]; obese mice): improved glucose tolerance
